According to US7495027B2, “3-aryl-4-hydroxyfuranone compounds and the human and animal health use thereof” (Wyeth, priority 2003, dated 2009):
Converted amounts (≈) assume the structure as drawn. Like-named read-outs stand apart in the source and are kept apart here.

Experiments:
Streptococci = experiment: Minimum inhibitory concentration, microdilution broth method, streptococci; format: cell-based; settings: Mueller-Hinton broth with 5% horse blood, 18-22 hours at 35° C.; for MIC: S. pneumo GC 1894
Method in brief: (§1)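 Organisms, including methicillin-, penicillin- and/or vancomycin-resistant clinical isolates, tested by NCCLS M7-A5 microdilution. Medium: Mueller-Hinton broth for staphylococci and enterococci, supplemented with 5% lysed horse blood for streptococci.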

[1] = target: T1, S. aureus Uridine-diphosphate-N-acetylmuramoyl-L-alanine: D-glutamate liease, MurD (Staphylococcus aureus, UniProt Q2FZ92); experiment: biochemical; settings: (S) S. aureus enzyme
T1 sequence (Q2FZ92 1-449): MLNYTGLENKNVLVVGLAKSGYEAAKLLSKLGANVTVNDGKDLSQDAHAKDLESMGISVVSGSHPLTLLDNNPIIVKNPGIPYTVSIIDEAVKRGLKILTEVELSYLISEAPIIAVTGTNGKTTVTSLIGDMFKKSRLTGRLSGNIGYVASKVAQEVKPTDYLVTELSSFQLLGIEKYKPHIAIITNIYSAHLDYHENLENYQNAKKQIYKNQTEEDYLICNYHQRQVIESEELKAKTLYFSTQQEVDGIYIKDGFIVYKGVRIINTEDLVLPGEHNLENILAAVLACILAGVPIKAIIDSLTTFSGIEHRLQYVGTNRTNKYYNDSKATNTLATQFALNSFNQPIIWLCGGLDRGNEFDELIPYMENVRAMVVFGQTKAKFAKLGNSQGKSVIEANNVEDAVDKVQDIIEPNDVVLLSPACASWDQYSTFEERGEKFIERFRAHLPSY
Method in brief: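 MurD, which catalyses the fourth step of cell wall biosynthesis, was tested for inhibition by compounds. Compounds were made up as 10 mg/mL DMSO stocks and diluted to 100 μg/mL in 50 mM Tris/HCl, pH 8.5.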

staphylococci = experiment: Minimum inhibitory concentration, microdilution broth method, staphylococci; format: cell-based; settings: Mueller-Hinton broth, 18-22 hours at 35° C.; for MIC: Staphylococcus aureus
Method in brief: as §1

[2] = target: T2, S. aureus Uridine-diphosphate-N-acetvimuramoyl: L-alanine lipase, MurC (Staphylococcus aureus, UniProt Q2FXJ0); experiment: biochemical; settings: (S) S. aureus enzyme; for IC50: read-out: MurC IC50 (converted)
T2 sequence (Q2FXJ0 1-437): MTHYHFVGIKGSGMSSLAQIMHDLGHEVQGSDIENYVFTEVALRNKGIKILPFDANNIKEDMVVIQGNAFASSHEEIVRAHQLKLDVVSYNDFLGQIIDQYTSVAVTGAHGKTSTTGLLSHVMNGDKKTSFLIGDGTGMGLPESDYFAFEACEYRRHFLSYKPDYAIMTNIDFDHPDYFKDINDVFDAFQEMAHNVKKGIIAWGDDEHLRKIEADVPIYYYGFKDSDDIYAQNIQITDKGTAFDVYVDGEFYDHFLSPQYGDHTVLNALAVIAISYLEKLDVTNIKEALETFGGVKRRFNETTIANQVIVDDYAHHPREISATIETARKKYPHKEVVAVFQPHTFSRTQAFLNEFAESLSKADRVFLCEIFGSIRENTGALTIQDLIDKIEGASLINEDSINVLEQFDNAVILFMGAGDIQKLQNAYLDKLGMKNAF
Description: S. aureus and E. coli Uridine-diphosphate-N-acetvimuramoyl: L-alanine lipase, MurC
Preparation of Enzyme Solution:
A 1 mg/mL stock solution of MurC is prepared in a buffer consisting of 20 mM Tris/HCl (pH 8.5) with 2.5 μM BME. The stock solution is further diluted with the buffer to give a final enzyme concentration of 100 μg/mL for the E. coli stock solution and 70 μg/mL for the S. aureus stock solution.
Preparation of Test Compound Solutions:
All test solutions are prepared in DMSO as 10 mg/mL, then diluted with 50 mM Tris/HCl (pH 8.5) to 100 μg/mL.
Preparation of Stop Solution:
The stop solution is prepared by stirring 1 part 4.2% ammonium molydbate in 4N HCl with 2 parts 0.045% malachite green for 30 min.
In this evaluation, the inhibitory activity of a test compound against MurC, the enzyme which catalyzes the third step of bacterial cell wall bioxynthesis is determined. Experiments are performed by adding 2.5 μl buffer, 2.5 μl 0.5M NH4SO2, 5 μl 2 μM L-Ala, 5 μl enzyme solution and 6.5 μl test compound solution to each well in a 96-well microplate. After a pre-incubation period of 10 mins. at 23° C., 3.75 μl of a 0.75 μM solution of UDP-MurNac is added to each well. Following an incubation period of 10 mins. at 37° C., 210 μl stop solution and 50 μl of a 34% w/v sodium citrate solution are added and color is allowed to develop for 10 mins. at 23° C. (Lanzetta et al., Analytical Biochemistry, 1979, 95) Optical density readings are taken at 660 nm using a Molecular Devices Spectra Max 250 with Soft Max software. Controls are performed using the same procedure and omitting the addition of UDP-MurNac. […]
Using these values the IC50 is determined by linear regression analysis.

[3] = S. aureus GC 1131, read-out: MIC S. aureus GC 1131
[4] = S. aureus GC 4543, read-out: MIC S. aureus GC 4543

Row | Compound | MIC (Streptococci) | IC50 [1] | MIC (staphylococci; [3]) | MIC (staphylococci; [4]) | IC50 [2] | MIC S. pneumo GC 1894 (Streptococci) | MurD IC50 [1] | MIC S. aureus GC 1131 (staphylococci; S. aureus GC 1131) | MIC S. aureus GC 4543 (staphylococci; S. aureus GC 4543) | MurC IC50 [2]
1 | COc1cc(/C=C2\OC(=O)C(c3cc(Cl)cc(Cl)c3)=C2O)ccc1-c1ccccc1C(F)(F)F [Example 33] | 0.5 mg/L (≈ 0.986 µM) | > 49.3 µM | 0.5 mg/L (≈ 0.986 µM) | 0.5 mg/L (≈ 0.986 µM) | > 49.3 µM | – | – | – | – | –
2 | O=C1O/C(=C\c2ccc(N3CCOCC3)c(F)c2)C(O)=C1c1cc(Cl)cc(Cl)c1 [Example 34] | – | – | – | – | – | 4 mg/L (≈ 9.17 µM) | >25 (S) μg/mL | 32 mg/L (≈ 73.3 µM) | 32 mg/L (≈ 73.3 µM) | 21 (S) μg/mL
3 | COc1ccc(C=C2OC(=O)C(c3cccc(Cl)c3)=C2O)c2ccccc12 [Example 35] | – | – | – | – | – | 2 mg/L (≈ 5.28 µM) | 17 (S) μg/mL | 8 mg/L (≈ 21.1 µM) | 8 mg/L (≈ 21.1 µM) | 8 (S) μg/mL
4 | COc1ccc(/C=C2\OC(=O)C(c3cc(Cl)cc(Cl)c3)=C2O)c2ccccc12 [Example 36] | 1 mg/L (≈ 2.42 µM) | 21.8 µM | 4 mg/L (≈ 9.68 µM) | 4 mg/L (≈ 9.68 µM) | 12.1 µM | – | – | – | – | –
5 | O=C1O/C(=C\c2ccc(N3CCOCC3)c3ccccc23)C(O)=C1c1cccc(Cl)c1 [Example 37] | 8 mg/L (≈ 18.4 µM) | 43.8 µM | 16 mg/L (≈ 36.9 µM) | 16 mg/L (≈ 36.9 µM) | 23 µM | – | – | – | – | –
6 | O=C1O/C(=C\c2ccc(N3CCOCC3)c3ccccc23)C(O)=C1c1cc(Cl)cc(Cl)c1 [Example 38] | 1 mg/L (≈ 2.14 µM) | 12.8 µM | 8 mg/L (≈ 17.1 µM) | 8 mg/L (≈ 17.1 µM) | 14.9 µM | – | – | – | – | –
7 | Cc1cc(/C=C2\OC(=O)C(c3cc(Cl)cc(Cl)c3)=C2O)ccc1-c1ccccc1OS(C)(=O)=O [Example 39] | – | – | – | – | – | 1 mg/L (≈ 1.93 µM) | 15 (S) μg/mL | 2 mg/L (≈ 3.87 µM) | 4 mg/L (≈ 7.73 µM) | 8 (S) μg/mL
8 | O=C1O/C(=C\c2cccc(C(F)(F)F)c2)C(O)=C1c1ccc2ccccc2c1 [Example 42] | 8 mg/L (≈ 20.9 µM) | > 65.4 µM | 8 mg/L (≈ 20.9 µM) | 8 mg/L (≈ 20.9 µM) | 47.1 µM | – | – | – | – | –
9 | O=C1O/C(=C\c2ccc(Cl)cc2)C(O)=C1c1ccc2ccccc2c1 [Example 43] | 1 mg/L (≈ 2.87 µM) | > 71.7 µM | 8 mg/L (≈ 22.9 µM) | 8 mg/L (≈ 22.9 µM) | 60.2 µM | – | – | – | – | –
10 | O=C1O/C(=C\C2CCCCC2)C(O)=C1c1ccc2ccccc2c1 [Example 51] | < 0.125 mg/L | > 78 µM | > 128 mg/L | 16 mg/L (≈ 49.9 µM) | 62.4 µM | – | – | – | – | –
11 | O=C1O/C(=C\c2ccc3ccccc3c2)C(O)=C1c1ccc2ccccc2c1 [Example 52] | 0.5 mg/L (≈ 1.37 µM) | 54.9 µM | 16 mg/L (≈ 43.9 µM) | 16 mg/L (≈ 43.9 µM) | > 68.6 µM | – | – | – | – | –
12 | O=C1O/C(=C\c2ccc(-c3ccccc3)cc2)C(O)=C1c1ccc(Cl)cc1 [Example 53] | 0.5 mg/L (≈ 1.33 µM) | 42.7 µM | 16 mg/L (≈ 42.7 µM) | 16 mg/L (≈ 42.7 µM) | 18.7 µM | – | – | – | – | –
13 | O=C1O/C(=C\c2ccc3ccccc3c2)C(O)=C1c1ccc(Cl)cc1 [Example 54] | < 0.125 mg/L | > 71.7 µM | 8 mg/L (≈ 22.9 µM) | 16 mg/L (≈ 45.9 µM) | 31.5 µM | – | – | – | – | –
14 | O=C1O/C(=C\c2ccc3ccccc3c2)C(O)=C1c1cccc2ccccc12 [Example 56] | 4 mg/L (≈ 11 µM) | 52.1 µM | 16 mg/L (≈ 43.9 µM) | 32 mg/L (≈ 87.8 µM) | 30.2 µM | – | – | – | – | –
15 | O=C1O/C(=C\c2ccc(-c3ccccc3)cc2)C(O)=C1c1cc(Cl)cc(Cl)c1 [Example 67] | < 0.125 mg/L | 19.5 µM | 1 mg/L (≈ 2.44 µM) | – | 44 µM | – | – | – | 0.5 mg/L (≈ 1.22 µM) | –
16 | O=C1O/C(=C\c2ccc(-c3ccccc3)cc2)C(O)=C1c1cccc(Cl)c1 [Example 69] | 0.25 mg/L (≈ 0.667 µM) | 18.7 µM | 2 mg/L (≈ 5.34 µM) | 1 mg/L (≈ 2.67 µM) | 13.3 µM | – | – | – | – | –
17 | O=C1O/C(=C\c2cccc3ccccc23)C(O)=C1c1cc(Cl)cc(Cl)c1 [Example 70] | 0.5 mg/L (≈ 1.3 µM) | 23.5 µM | 2 mg/L (≈ 5.22 µM) | 1 mg/L (≈ 2.61 µM) | 20.9 µM | – | – | – | – | –
